Data on three compounds can be found in US6589570B1, “Pharmaceutical formulation useful for the treatment of hepatitis B, hepatitis C and other viral infections of the liver and a process for its preparation” (priority 1999, dated 2003).

The subject of one data set is cultured rat hepatocytes. Conditions: cited from earlier work.
For a further data set, the system named is isolated rat hepatocytes. Kind of data set: Anti hepatotoxic potential, β-galactosamine challenged isolated rat hepatocytes. The data set is classed as cell-based. Conditions: 0.5 mM. As for the experimental part: The liver was perfused through the portal vein with 30-50 ml of cold sodium citrate (0.027M) in calcium free lockets solution. During the perfusion, the liver gets blanched and fully distended. Perfusion is generally completed within 5 minutes of anaesthetizing the animal. The perfused liver is excised and washed well with the perfusion fluid and pressed in folds of sterile filter paper, weighed and cut into several small pieces and with a pair of scissors. A known wet weight of the liver (usually between 2-6 gm) was transferred with 5 volume of cold 0.25M sucrose into a sterile glass homogenizer and finely grounded. The cell suspension was filtered once, without application of pressure through 200-mesh brass gauze to remove strands of connective tissue and clumps of cells. The suspension contained some cell debris and blood cells at this stage, which were removed by centrifugation at a low speed (100-200 g) for 2 minutes. After removal of the supernatant, the cell sediment was resuspended in a known volume of the minimum essential medium for further studies. […] The cells, which have not taken the dye, are live cells, which are counted. […] Four sets of isolated rat hepatocyte cultures were put up. […] Set III with 0.5 mM concentration of β-galactosamine, a known hepatotoxic agent and set IV was treated with β-galactosamine and then protected with the formulation of the present invention. […]

`COC[C@@H]1Cc2cc(OC)c3c(c2[C@H](c2ccc(OC)c(OC)c2)[C@H]1COC)OCO3` [Hypo phyllanthin]: the “CCl4 or galatosamine induced cytotoxicity to cultured rat hepatocytes” value in the data set on cultured rat hepatocytes is “reduced”.

On to `COC[C@@H](Cc1ccc(OC)c(OC)c1)[C@@H](COC)Cc1ccc(OC)c(OC)c1` [Phyllanthin], for which the “CCl4 or galatosamine induced cytotoxicity to cultured rat hepatocytes” value in the data set on cultured rat hepatocytes is listed as “reduced”.

Take `N[C@@H]1[C@@H](O)[C@@H](O)[C@@H](CO)O[C@H]1O` [β-galactosamine]: in the data set on isolated rat hepatocytes, the “hepatotoxicity on isolated rat hepatocytes” value is “profound hepatotoxic chemical”.
